The subject of this data set is GENE-TOX genotoxicity assays, various organisms and cells. The data set is described as follows: GENE-TOX mutagenicity studies. The settings on record: for call: Assay Type: In vivo carcinogenicity studies.
Setting [1] is: Species/Cell Type: Human lymphocytes, Assay Type: Sister-chromatid exchange (SCE) in vivo, Assay Code: SCY+, Evaluation Type: Evaluation B (Post-1980).
The mark [2] stands for this setting: Species/Cell Type: Mammalian polychromatic erythrocytes, Assay Type: Micronucleus test, chromosome aberrations, Assay Code: MNT+, Evaluation Type: Evaluation B (Post-1980).
[3] abbreviates: Species/Cell Type: Mammalian polychromatic erythrocytes, Assay Type: Micronucleus test, chromosome aberrations, Assay Code: MNTT, Evaluation Type: Evaluation A (Pre-1980).
[4] abbreviates: Species/Cell Type: Rodents, Sex: Male, Assay Type: Dominant lethal test, Assay Code: DLT+, Evaluation Type: Evaluation A (Pre-1980).
[5] abbreviates: Species/Cell Type: Human lymphocytes, Assay Type: Sister-chromatid exchange (SCE) in vitro, Assay Code: SCL+D, Dose Response: With dose response, Evaluation Type: Evaluation B (Post-1980).
Setting [6] is: Species/Cell Type: Human, Assay Type: Sister-chromatid exchange (SCE) in vitro, Assay Code: SC1+D, Dose Response: With dose response, Evaluation Type: Evaluation B (Post-1980).
Where [7] appears, read: Species/Cell Type: Nonhuman, Assay Type: Sister-chromatid exchange (SCE) in vitro, Assay Code: SC2+D, Dose Response: With dose response, Evaluation Type: Evaluation B (Post-1980).
The mark [8] stands for this setting: Species/Cell Type: Salmonella typhimurium (one or more of the five standard strains: TA98, TA100, TA1535, TA1537, and TA1538), Assay Type: Histidine reverse gene mutation, Ames assay, Assay Code: SALT, Evaluation Type: Evaluation A (Pre-1980).
Setting [9] is: Species/Cell Type: Drosophila melanogaster, Assay Type: Sex-linked recessive lethal gene mutation, Assay Code: SRLT, Evaluation Type: Evaluation A (Pre-1980).
Setting [10] is: Species/Cell Type: Mammalian polychromatic erythrocytes, Assay Type: Micronucleus test, chromosome aberrations, Assay Code: MNTT, Evaluation Type: Evaluation B (Post-1980).
Where [11] appears, read: Species/Cell Type: Salmonella typhimurium (one or more of the five standard strains: TA98, TA100, TA1535, TA1537, and TA1538), Assay Type: Histidine reverse gene mutation, Ames assay, Assay Code: SAL+, Evaluation Type: Evaluation A (Pre-1980).
The mark [12] stands for this setting: Species/Cell Type: Salmonella typhimurium (one or more of the five standard strains: TA98, TA100, TA1535, TA1537, and TA1538), Assay Type: Histidine reverse gene mutation, Ames assay, Assay Code: SAL+*, Activation: With metabolic activation, Evaluation Type: Evaluation A (Pre-1980).

The source made the active and inactive calls. No rule for the calls is given here.

Consider `CS(=O)(=O)OCCCCOS(C)(=O)=O`, for which the mutagenic call (Species/Cell Type: Arabidopsis species, Assay Type: Gene mutation, Assay Code: ARM+, Evaluation Type: Evaluation A (Pre-1980)) is “active; positive”; the mutagenic call (Species/Cell Type: Chinese hamster ovary (CHO) cells, Assay Type: Forward gene mutation at the HPRT locus, Assay Code: CHO+, Evaluation Type: Evaluation B (Post-1980)) was “active; positive”; the mutagenic call (Species/Cell Type: Drosophila melanogaster, Assay Type: Sex-linked recessive lethal gene mutation, Assay Code: SRL+, Evaluation Type: Evaluation A (Pre-1980)) is “active; positive”; the mutagenic call (Species/Cell Type: Escherichia coli polA (W3119 vs P3478), Assay Type: Rec-assay, DNA effects (bacterial DNA repair), Assay Code: RE1+, Evaluation Type: Evaluation A (Pre-1980)) is “active; positive”; the mutagenic call (Species/Cell Type: Hordeum vulgare (barley), Assay Type: Chromosome aberrations, Assay Code: HOC+D, Dose Response: With dose response, Evaluation Type: Evaluation A (Pre-1980)) is “active; positive”; the mutagenic call (Species/Cell Type: Human lymphocytes or leukocytes, Assay Type: Chromosome aberrations in vitro, Assay Code: CY7+D, Dose Response: With dose response, Evaluation Type: Evaluation A (Pre-1980)) was “active; positive”. For the same molecule, the mutagenic call was “active; positive” (Species/Cell Type: Human lymphocytes, Assay Type: Sister-chromatid exchange (SCE) in vitro, Assay Code: SCL+D, Dose Response: With dose response, Evaluation Type: Evaluation A (Pre-1980)); “active; positive” under setting [1]; “active; positive” (Species/Cell Type: Human, Assay Type: Sister-chromatid exchange (SCE) in vitro, Assay Code: SC1+D, Dose Response: With dose response, Evaluation Type: Evaluation A (Pre-1980)); “no conclusion” (Species/Cell Type: Mammalian germ cells, Sex: Male, Assay Type: Chromosome aberrations in vivo, Assay Code: CY9T, Evaluation Type: Evaluation A (Pre-1980)); “active; positive” under setting [2]; “no conclusion” under setting [3]. Further, the mutagenic call (Species/Cell Type: Mouse lymphoma (L5178Y) cells, Assay Type: Forward gene mutation at the thymidine kinase (TK) locus, chromosome aberrations, Assay Code: L51+, Evaluation Type: Evaluation A (Pre-1980)) was “active; positive”; the mutagenic call (Species/Cell Type: Mouse, Sex: Male, Assay Type: Sperm morphology, Assay Code: SPI+, Evaluation Type: Evaluation A (Pre-1980)) was “active; positive”; the mutagenic call (Species/Cell Type: Neurospora crassa, Assay Type: Forward gene mutation, Assay Code: NEF+, Evaluation Type: Evaluation A (Pre-1980)) is “active; positive”; the mutagenic call (Species/Cell Type: Nonhuman bone marrow, Assay Type: Chromosome aberrations, in vivo, Assay Code: CY#+D, Dose Response: With dose response, Evaluation Type: Evaluation A (Pre-1980)) is “active; positive”; the mutagenic call (Species/Cell Type: Nonhuman, Assay Type: Sister-chromatid exchange (SCE) in vitro, Assay Code: SC2+, Evaluation Type: Evaluation B (Post-1980)) was “active; positive”; the mutagenic call (Species/Cell Type: Rabbit, Sex: Male, Assay Type: Sperm morphology, Assay Code: SPR+, Evaluation Type: Evaluation A (Pre-1980)) was “active; positive”. Moreover, under setting [4], the mutagenic call was “active; positive”. Where the note is “Species/Cell Type: Nonhuman, Assay Code: CCGT, Evaluation Type: Evaluation A (Pre-1980)”, the call is recorded as “no conclusion”.

Turning to `C1CN(P2(N3CC3)=NP(N3CC3)(N3CC3)=NP(N3CC3)(N3CC3)=N2)CCO1` (centres undefined), the mutagenic call is “active; positive” (Species/Cell Type: Human lymphocytes or leukocytes, Assay Type: Chromosome aberrations in vitro, Assay Code: CY7+, Evaluation Type: Evaluation A (Pre-1980)); “active; positive” under setting [5]; “active; positive” under setting [6]; “active; positive” under setting [7]; “active; positive” under setting [4].

Consider `O=C(O)[C@@H]1CCCN1[N+](=O)[O-]`, for which the mutagenic call under setting [8] was “no conclusion”.

Take `Cc1ccccc1S(N)(=O)=O`: the mutagenic call is, setting by setting: under setting [9], “no conclusion”; under setting [10], “no conclusion”; (Species/Cell Type: Salmonella typhimurium (one or more of the five standard strains: TA98, TA100, TA1535, TA1537, and TA1538), Assay Type: Histidine reverse gene mutation, Ames assay, Assay Code: SAL-, Evaluation Type: Evaluation A (Pre-1980)) “inactive; negative”.

Consider `CCCN(CCCC(=O)O)N=O`, for which, under setting [11], the mutagenic call was “active; positive”.

With `CCNC(=O)Nc1ncc([N+](=O)[O-])s1`, the call (Species/Cell Type: Nonhuman, Assay Code: CCG+, Evaluation Type: Evaluation A (Pre-1980)) was “active; positive”.

As for `CCC1(c2ccccc2)C(=O)NC(=O)NC1=O`, the mutagenic call is “active; positive” under setting [1]; “active; positive” under setting [2]; “no conclusion” under setting [3]; “inactive; negative” (Species/Cell Type: Mouse, Sex: Male, Assay Type: Sperm morphology, Assay Code: SPI-, Evaluation Type: Evaluation A (Pre-1980)); “inactive; negative” (Species/Cell Type: Syrian hamster embryo (SHE) cells, Assay Type: Cell transformation, clonal assay, Assay Code: CTC-, Evaluation Type: Evaluation A (Pre-1980)).

`COc1ccc2c3c(cccc13)C(=O)c1ccccc1-2`: the mutagenic call under setting [12] is “active; positive”.

Take `CCCCCCCCCCCCCCCCCCOCC(O)COP(=O)([O-])OCC[N+](C)(C)C` (centres undefined): the mutagenic call under setting [10] is on record as “no conclusion”.

On to `CCOP(=O)(OCC)Oc1cc(C)nc(C(C)C)n1`, for which the mutagenic call under setting [7] is “active; positive”.

As to `COc1cc2c(c(O)c1O)C(=O)c1c(O)cc(C)cc1C2=O`, under setting [11], the mutagenic call is “active; positive”.

As for `O=C(O)c1ccccc1NCCc1ccccc1`, the mutagenic call under setting [10] is recorded as “no conclusion”.

On to `C=C(C)C(=O)/C(=C\C(=O)O)OC`, for which the mutagenic call by setting is: (Species/Cell Type: Bacillus subtilis (H17 vs M45), Assay Type: Rec-assay, spot test, DNA effects (bacterial DNA repair), Assay Code: REW+, Evaluation Type: Evaluation A (Pre-1980)) “active; positive”; (Species/Cell Type: Saccharomyces cerevisiae, Assay Type: Mitotic recombination or gene conversion, Assay Code: YEH-, Evaluation Type: Evaluation A (Pre-1980)) “inactive; negative”; under setting [8], “no conclusion”. The call (Species/Cell Type: Nonhuman, Assay Code: CCG+L, Evaluation Type: Evaluation A (Pre-1980)) was “active; positive”.

With `[Cl][Pt-2]([Cl])([Cl])[Cl]`, where the note is “Species/Cell Type: Chinese hamster ovary (CHO) cells, Assay Type: Forward gene mutation at the HPRT locus, Assay Code: CHOT, Evaluation Type: Evaluation B (Post-1980)”, the mutagenic call is “no conclusion”.

Consider `Cc1ccc2ccc3c(C)c4ccccc4c4ccc1c2c34`, for which the mutagenic call under setting [9] is on record as “no conclusion”.

Turning to `OC[C@H]1O[C@@H](n2cnc3cncnc32)[C@H](O)[C@@H]1O`, the mutagenic call (Species/Cell Type: Arabidopsis species, Assay Type: Gene mutation, Assay Code: ARM-, Evaluation Type: Evaluation A (Pre-1980)) is “inactive; negative”.

Take `COc1cc2c(c3ccc4ccccc4c13)CC=C2C`: the mutagenic call under setting [12] was “active; positive”.

For `CC[C@H]1OC(=O)[C@H](C)[C@@H](O[C@H]2C[C@@](C)(OC)[C@@H](O)[C@H](C)O2)[C@H](C)[C@@H](O[C@@H]2O[C@H](C)C[C@H](N(C)C)[C@H]2O)[C@](C)(O)C[C@@H](C)C(=O)[C@H](C)[C@@H](O)[C@]1(C)O`, the mutagenic call (Species/Cell Type: Escherichia coli polA (W3119 vs P3478), Assay Type: Rec-assay, DNA effects (bacterial DNA repair), Assay Code: RE1-, Evaluation Type: Evaluation A (Pre-1980)) was “inactive; negative”.

Take `N#[N+]c1nc[nH]c1C(N)=O`: the mutagenic call under setting [11] is “active; positive”.

`[Se]`: the mutagenic call by setting is: under setting [5], “active; positive”; under setting [6], “active; positive”.

Turning to `O=C(c1ccc2c(c1)OCO2)C1CO1` (centres undefined), the mutagenic call under setting [11] was “active; positive”.
